These results are taken from US11267807B2, “Use of small molecule inhibitors to KLF10 for modulation of T regulatory cells and cancer immunotherapy” (THE BRIGHAM AND WOMEN'S HOSPITAL, INC., priority 2015, dated 2022).

One assay deals with CD4+CD25− T cells. The assay is described as follows: T regulatory cell differentiation assay, flow cytometry. Format: cell-based, mouse. The conditions noted are these: 3 days culture, FIG. 4A-4C. On the procedure: Mouse spleens were meshed through a cell strainer into Phosphate Buffered Saline (PBS) with 2% Fetal Bovine Serum and 1% Penicillin/Streptomycin, and cells were collected by spinning at 1000 rpm for 10 min. CD4+CD25− T cells were purified by using CD4+CD25+ T cell isolation kit (Miltenyi Biotec) according to the manufacturer's instructions. Briefly, cells were incubated with Biotin-conjugated antibodies, followed by anti-biotin microbeads and PE-conjugated anti-CD25 antibody for 30 min on ice with gentle shaking. Mixtures were loaded into pre-washed LD columns in the Magnetic field, and CD4+ cells were collected and then incubated with anti-PE microbeads. Mixtures were loaded into pre-washed MS columns in the magnetic field to collect CD4+CD25− T cells (non-bound cell fraction). Cells were plated into 12-well plates pre-coated with 1 μg/mL anti-CD3e (eBioscience) overnight in RPMI1640 Medium with 10% FBS, 1% Penicillin/Streptomycin, 1% non-essential amino acids, and 2-mercaptoethanol, 1 μg/mL anti-CD28 (BD Biosciences), and 1 ng/mL TGF-β1 (Peprotech). Cells were cultured at 37° C. up to five days for the conversion of CD4+CD25− T cells to CD4+CD25+ T regs. For flow cytometry, cells were stained with anti-mouse CD25 Alexa Fluo®488 (eBioscience) and analyzed by using multicolor FACS (ARIA; BD Biosciences) as previously described.^12
(A flow cytometer gives signals particle by particle.)

A further assay relates to Foxp3. Description: Foxp3 expression by qPCR during conversion of CD4+CD25− T cells to T regs. Format: cell-based, mouse. The conditions noted are these: 50 μM, FIG. 5. On the procedure:
Taken together, these observations indicate that these compounds effectively suppress the KLF10 target gene Foxp3, a critical regulator of T reg cell differentiation.^28
T cells were suspended in TRIzol® reagent (Invitrogen), and total RNA was isolated according to the manufacturer's instructions. Reverse transcriptions were performed by using the Reverse Transcription Kit and QuantiTect SYBR Green reverse transcription-PCR kit from Qiagen for quantitative real-time quantitative PCR analysis on a Mx3000P real-time PCR system (Stratagene) following the manufacturer's instructions. Primers were used to detect mouse FoxP3 as previously described.^12
Mouse spleens were meshed through a cell strainer into Phosphate Buffered Saline (PBS) with 2% Fetal Bovine Serum and 1% Penicillin/Streptomycin, and cells were collected by spinning at 1000 rpm for 10 min. CD4+CD25− T cells were purified by using CD4+CD25+ T cell isolation kit (Miltenyi Biotec) according to the manufacturer's instructions. Briefly, cells were incubated with Biotin-conjugated antibodies, followed by anti-biotin microbeads and PE-conjugated anti-CD25 antibody for 30 min on ice with gentle shaking. […] For flow cytometry, cells were stained with anti-mouse CD25 Alexa Fluo®488 (eBioscience) and analyzed by using multicolor FACS (ARIA; BD Biosciences) as previously described.^12
On the technique in general: In qPCR the cycle at which signal appears reflects the starting amount.

Another assay has as its system B16 melanoma tumor. Description: In vivo B16 melanoma tumor model. Also on record: species or system mice.
Another assay concerns TGF-beta1. Description: TGF-beta1 expression in CD4+ T cells isolated from B16 melanoma tumors. The following applies: mice injected i.p., FIG. 14. Format: in vivo.
A further assay deals with prostate TRAMP-C2 tumors. Description: In vivo prostate TRAMP-C2 tumor model. The conditions noted are these: systemic delivery i.p. Day 3, 200 mg/kg, FIG. 13.
The target in assay [1] is T1, KLF10 (Homo sapiens, UniProt Q13118).
T1 sequence (Q13118 1-480): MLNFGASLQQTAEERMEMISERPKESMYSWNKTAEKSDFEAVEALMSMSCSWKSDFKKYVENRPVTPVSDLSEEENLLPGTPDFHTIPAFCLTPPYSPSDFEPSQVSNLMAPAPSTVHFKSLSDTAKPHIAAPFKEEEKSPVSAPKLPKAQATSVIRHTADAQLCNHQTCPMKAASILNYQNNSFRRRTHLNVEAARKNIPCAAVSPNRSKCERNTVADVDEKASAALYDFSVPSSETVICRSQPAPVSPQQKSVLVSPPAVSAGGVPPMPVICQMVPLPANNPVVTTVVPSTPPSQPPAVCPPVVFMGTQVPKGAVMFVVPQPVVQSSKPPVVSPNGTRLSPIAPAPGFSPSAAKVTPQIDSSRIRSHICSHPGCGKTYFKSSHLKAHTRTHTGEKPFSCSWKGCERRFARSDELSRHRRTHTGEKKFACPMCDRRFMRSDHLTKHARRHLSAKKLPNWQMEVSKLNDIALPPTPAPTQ
Description: KLF10 CACCC-luciferase reporter assay in transfected HeLa cells. Format: cell-based. Also on record: host or cells: HeLa. The conditions noted are these: for inhibition at 100 µM: HeLa. Background: In a reporter assay the amount or activity of a reporter protein is the signal.

Assay [2] addresses T1, KLF10. Description: Gel mobility shift assay, KLF10 DNA-binding activity. Also on record: GST (N); purchased Novus Biologicals. On the procedure:
The identified small molecule compounds were next examined for effects on KLF10 DNA-protein binding.
KLF10 recombinant protein was obtained from Novus Biologicals. Oligonucleotides 5′-[…] End-labeled oligos (1 μmol/L) were annealed in a buffer system with 10 mM Tris, 50 mM NaCl, pH 8.0 by heating at 95° C. for 5 min, then slowly cooled to 65° C. for 30 min incubation, and cooled to room temperature. […] Compounds were incubated with KLF10 in a reaction system for 4 hrs at room temperature, and then Biotin-labeled probes were added for a 1 hr incubation. Binding reactions were electrophoresed for 80 min at 100 volts on 6% polyacrylamide gel in 0.5×TBE. The binding reactions were transferred to nylon membranes at 100 volts for 45 min, and transferred DNA was cross-linked to membrane using an HL-2000 Hybrilinker instrument. Biotin-labeled DNAs were detected by chemiluminescence.

For the next assay, the target named is T2, GLI (Homo sapiens, UniProt P08151).
T2 construct: host or cells: HEK293 (transfected)
T2 sequence (P08151 1-1106): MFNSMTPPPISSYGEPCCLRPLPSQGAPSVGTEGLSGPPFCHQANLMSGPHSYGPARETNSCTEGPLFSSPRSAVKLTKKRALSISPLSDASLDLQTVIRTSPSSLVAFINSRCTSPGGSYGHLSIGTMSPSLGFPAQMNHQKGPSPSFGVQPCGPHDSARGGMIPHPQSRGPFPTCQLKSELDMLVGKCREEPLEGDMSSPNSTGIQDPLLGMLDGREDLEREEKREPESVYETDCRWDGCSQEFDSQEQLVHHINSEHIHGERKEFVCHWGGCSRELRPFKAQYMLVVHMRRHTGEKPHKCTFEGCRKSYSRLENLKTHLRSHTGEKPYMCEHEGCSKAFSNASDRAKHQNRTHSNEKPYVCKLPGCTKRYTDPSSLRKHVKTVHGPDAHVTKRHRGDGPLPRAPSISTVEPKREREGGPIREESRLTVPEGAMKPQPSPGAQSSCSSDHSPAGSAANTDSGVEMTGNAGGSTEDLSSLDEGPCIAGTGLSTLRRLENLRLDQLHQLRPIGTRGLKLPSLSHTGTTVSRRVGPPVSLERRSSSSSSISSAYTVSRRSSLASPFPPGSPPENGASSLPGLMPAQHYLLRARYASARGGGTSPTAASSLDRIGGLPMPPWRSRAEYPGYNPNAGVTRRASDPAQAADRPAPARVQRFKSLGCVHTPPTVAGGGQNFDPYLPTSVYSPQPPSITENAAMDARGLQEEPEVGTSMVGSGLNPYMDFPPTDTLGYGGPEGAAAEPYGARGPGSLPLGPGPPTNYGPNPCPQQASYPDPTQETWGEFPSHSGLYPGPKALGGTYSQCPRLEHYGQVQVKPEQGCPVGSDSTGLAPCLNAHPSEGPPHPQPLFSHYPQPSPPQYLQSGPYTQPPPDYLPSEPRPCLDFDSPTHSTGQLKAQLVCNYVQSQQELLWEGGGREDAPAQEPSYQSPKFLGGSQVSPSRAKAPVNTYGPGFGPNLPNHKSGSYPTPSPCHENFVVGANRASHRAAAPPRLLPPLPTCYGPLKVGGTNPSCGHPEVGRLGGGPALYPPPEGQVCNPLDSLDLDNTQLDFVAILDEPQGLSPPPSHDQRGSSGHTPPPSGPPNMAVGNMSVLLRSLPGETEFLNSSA
The conditions noted are these: 30 μM, transfected HEK293 cells; cited from earlier work.

Where [3] appears, read: KLF10 reporter activity, 100 μM, Table 1, read-out: % Inhibition at 100 μM (± sd).
The mark [4] stands for this setting: concentration that inhibited 50% of KLF10 reporter activity, Table 1, read-out: IC50.

Where two headings read alike, the source gives them in different places.

In the case of `Cc1sc2nc(SCC(=O)c3ccc(O)c(O)c3)nc(O)c2c1C` [#15-09], the “inhibition of the percentage of CD4+CD25+ T regs” value in the assay on CD4+CD25− T cells is 29.2%. The “inhibition of Foxp3 expression” value with Foxp3 stood at 90.8%.

On to `Cc1ccc(OCC(=O)c2cc(C)c(O)cc2O)cc1` [#48], for which the “inhibition of the percentage of CD4+CD25+ T regs” value in the assay on CD4+CD25− T cells turned out to be 57.4%. Besides, in the assay with B16 melanoma tumor (local injection Day 0, 20 mg/kg, FIG. 11), the “B16 melanoma tumor inhibition” value is “inhibits”. In addition, in the assay on B16 melanoma tumor (systemic delivery i.p. Day 3, 200 mg/kg, FIG. 12), the “B16 melanoma tumor model inhibition” value is reported as “inhibits”. Further, the “TGF-beta1 expression in CD4+ T cells from tumors” value with TGF-beta1 is “reduced TGF-beta1 expression”. For the same compound, in the assay with Foxp3, the “inhibition of Foxp3 expression” value is listed as 84.7%. The “prostate TRAMP-C2 tumor inhibition” value with prostate TRAMP-C2 tumors is reported as “inhibits”. For the same compound, at KLF10 [1] (100 μM, FIG. 1C), the “induction of luciferase activity by exogenous KLF10 expression blocked” value turned out to be 96.6%. For the same compound, the inhibition – broadly, the change of the read-out against control, counted positive when it falls – at 100 µM on KLF10 [1] (setting [3]) worked out at 54.5 ± 8%; at KLF10 [1] (KLF10 reporter activity, 100 μM, Table 2, read-out: % Inhibition 100 μM (± sd)) it was 54.5 ± 8%. Moreover, the IC50 (in general, the point on the concentration scale where inhibition reaches its midpoint) on KLF10 [1] (KLF10 reporter activity, Table 2, read-out: IC50) worked out at 112 µM; at KLF10 [1] (setting [4]), 112 µM; on KLF10 [1] (non-linear regression of dose-response, FIG. 2A-2C, read-out: IC50 on KLF10 transcriptional activity) it was 112 µM. Moreover, the inhibition at 8 µM on KLF10 [2] (8 μM) came to 11%. Besides, at KLF10 [2] (40 μM), the inhibition at 40 µM was determined as 25%.

Take `Cc1cc(C(=O)Nc2cnc(O)nc2O)ccc1[N+](=O)[O-]` [#77]: the inhibition at 100 µM at KLF10 [1] (setting [3]) was 61.7 ± 2.6%. Further, on KLF10 [1] (setting [4]), the IC50 was 10 µM.

In the case of `OC1=CN=C(O)/C1=C/Nc1ccccc1O` [#82], the inhibition at 100 µM at KLF10 [1] (setting [3]) is 31.9 ± 0.4%.

Turning to `c1cc(-c2sc(-c3ccncc3)c(-c3ccncc3)c2-c2ccncc2)ccn1` [GANT58], the GLI-induced transcription entry on GLI is given as “inhibited”.

Consider `CN(C)c1ccccc1CN1CCCN(Cc2ccccc2N(C)C)C1c1ccncc1` [GANT61], for which the GLI-induced transcription entry at GLI is listed as “inhibited”.

As for `Cc1ccc(C(=O)c2cc(O)c(O)c([N+](=O)[O-])c2)cc1` [Tolcapone, reference compound], at KLF10 [1] (setting [3]), the inhibition at 100 µM was determined as 71.8 ± 0.9%. In addition, the concentration for half-maximal inhibition (IC50) at KLF10 [1] (setting [4]) was 50 µM.
